“Also recorded” adds a separate entry of the source.
Columns and labels:
NMD = NMD luciferase reporter assay with vectors containing NMD signals associated with β039-thalassemia; type: cell-based; conditions: for submaximal effect of the NMD inhibitor when combined with nonsense suppressor G418: 15 μM CPX, 125 μM DEF, 200 μM HYD, G418 at 800 μM; for drug concentrations at which inhibition of NMD is seen: dose-dependent; for NMD in the thalassemia model system: ratio of Renilla luciferase from NMD-sensitive reporter to matched NMD-insensitive control
Description: The experiment of FIG. 5 used RNA silencing with small interfering RNAs (siRNAs) to deplete eIF5A itself, or either of the modifying enzymes required for hypusine formation. […] Data are shown as ratio of luciferase activities.
These experiments were carried out in the well-authenticated assay system using vectors containing NMD signals associated with β^039-thalassemia (Woeller C F, Gaspari M, Isken O, Maquat L.: EMBO Rep. 2008 May; 9(5):446-51).

eIF5A:DHS complexes = target: T1, eIF5A:DHS complexes (Homo sapiens, UniProt P49366); assay: Co-immunoprecipitation of endogenous eIF5A with FLAG-DHS from transfected 293T cells; type: cell-based; conditions: FLAG-DHS transfected 293T cells; GC7 10 μM, CPX 30 μM, DEF 250 μM
T1 construct: expressed in transfected cells; host or cells: 293T cells (FLAG-DHS transfected; eIF5A endogenous)
T1 sequence (P49366 1-369): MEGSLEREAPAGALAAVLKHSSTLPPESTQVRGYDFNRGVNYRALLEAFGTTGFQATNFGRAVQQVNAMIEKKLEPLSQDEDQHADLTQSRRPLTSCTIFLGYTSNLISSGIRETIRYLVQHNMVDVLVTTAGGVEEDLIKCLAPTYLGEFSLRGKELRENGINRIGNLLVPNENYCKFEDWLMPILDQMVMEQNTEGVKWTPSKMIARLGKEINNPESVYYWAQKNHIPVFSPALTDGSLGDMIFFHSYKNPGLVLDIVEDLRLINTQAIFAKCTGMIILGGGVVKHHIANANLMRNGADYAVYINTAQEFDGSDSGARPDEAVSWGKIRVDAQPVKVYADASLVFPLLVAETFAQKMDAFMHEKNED
Description: (§1) FIG. 2E illustrates 293T cells transfected with FLAG-DHS, FLAG-DOHH or empty vector (control) were treated with GC7, CPX, or DEF, or no drug (-) at the same concentration as in FIG. 2D. Immunoprecipitates obtained with anti-FLAG antibody were immunoblotted and probed with anti-eIF5A antibody (BD). WCE equivalent to 5% of the input was immunoblotted as a further control. Reciprocally, the interaction between endogenous eIF5A and tagged DOHH was inhibited by CPX and DEF (FIG. 2E, right). Similarly, the interaction of endogenous eIF5A with tagged DHS was inhibited by GC7 (FIG. 2E, left), but was resistant to CPX and DEF (not shown).

DOHH = target: T2, DOHH (Homo sapiens, UniProt Q9BU89); assay: Immunoblot of eIF5A modification (maturation) in 293T cells transfected with FLAG-tagged eIF5A; type: cell-based; conditions: for concentration range reducing the appearance of mature eIF5A: FLAG-eIF5A, NIH-353 immunoblot
T2 construct: endogenous in cells; host or cells: 293T cells
T2 sequence (Q9BU89 1-302): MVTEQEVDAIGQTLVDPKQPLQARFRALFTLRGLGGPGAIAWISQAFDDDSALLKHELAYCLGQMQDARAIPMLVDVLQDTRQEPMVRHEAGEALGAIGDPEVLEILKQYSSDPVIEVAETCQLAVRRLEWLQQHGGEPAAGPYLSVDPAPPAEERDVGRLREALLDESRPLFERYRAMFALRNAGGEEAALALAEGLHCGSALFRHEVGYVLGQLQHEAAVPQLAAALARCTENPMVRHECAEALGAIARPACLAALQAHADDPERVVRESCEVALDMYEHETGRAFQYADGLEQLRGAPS
Text: To examine the effect of compounds on the synthesis of modified eIF5A, 293T cells transfected with a FLAG-tagged eIF5A expression vector were simultaneously treated with ciclopirox (“CPX”) or deferiprone (“DEF”).
FLAG-eIF5A was monitored using NIH-353 and anti-FLAG antibodies (FIGS. 2A and 2B). FIG. 2A illustrates inhibition of eIF5A modification in 293T cells. Cells transfected with FLAG-tagged eIF5A were untreated or treated with increasing concentrations of CPX as indicated, or with agent P2. FIG. 2B illustrates cells transfected with FLAG-tagged eIF5A that were untreated or treated with increasing concentrations of DEF as indicated, or with DFOX. At 24 hours post-transfection, whole cell extract (“WCE”) was analyzed by immunoblotting with the NIH-353 anti-eIF5A antibody (upper panel) and anti-actin antibody (lower panel). The […] antibody reacts preferentially with post-translationally modified eIF5A. CPX reduced the appearance of mature eIF5A over the 3-30 μM concentration range, while DEF was effective at 200-400 μM. […] In addition to the CPX homolog Agent P2, deferoxamine (“DFOX”; Desferal™) was used as a control compound. DFOX, a metal-binding hydroxamate like CPX and Agent P2 (FIG. 3), is a globally used medicinal iron chelator.
FIG. 2C illustrates cells transfected with FLAG-tagged eIF5A that were treated with CPX (30 μM), P2 (30 μM), DEF (250 μM), DFOX (10 μM), or no compound (-). At 24 hours post transfection, WCE was analyzed by immunoblotting with the NIH-353 anti-eIF5A antibody (upper panel) and anti-FLAG antibody (lower panel). The control culture was transfected with empty vector and no compound was added.

[1] = cited from earlier work
eIF5A:DOHH complex = target: T3, eIF5A:DOHH complex (Homo sapiens, UniProt Q9BU89); assay: Co-immunoprecipitation of the eIF5A:DOHH complex from transfected 293T cells; type: cell-based; conditions: CPX 30 μM, DEF 250 μM; for interaction between endogenous eIF5A and tagged DOHH: FLAG-DOHH transfected 293T cells; for association of endogenous DOHH with FLAG-eIF5A (co-immunoprecipitation): GC7 10 μM, P2 30 μM, DFOX 10 μM, 24 hours post-transfection
T3 construct: Endogenous DOHH co-immunoprecipitated with FLAG-eIF5A; expressed in transfected cells; host or cells: 293T cells (FLAG-eIF5A transfected; DOHH endogenous)
T3 sequence (Q9BU89 1-302): T2 sequence (Q9BU89 1-302)
Description: Unmodified eIF5A (lysine-50) immunoprecipitates with DHS, and deoxyhypusyl-eIF5A interacts with DOHH in vitro. The deoxyhypusyl-eIF5A:DOHH complex formed in vivo can be detected by immunoprecipitation from cell extracts. Taking advantage of this finding, the effects of the compounds on the enzyme-substrate interaction was tested, the results of which are illustrated in FIG. 2D. FLAG-eIF5A was expressed in 293T cells. 293T cells transfected with FLAG-eIF5A were untreated (-) or treated with GC7 (10 μM) or CPX (30 μM), P2 (30 μM), DEF (250 μM), or DFOX (10 μM). WCE prepared at 24 hours post-transfection was immunoprecipitated with anti-FLAG antibody. Complexes that immunoprecipitated with anti-FLAG antibody were immunoblotted and probed with antibodies against DOHH. […] As a further control, the DHS inhibitor GC7 was included in this assay. […] As expected, none of the compounds affected the immunoprecipitation of FLAG-eIF5A (FIG. 2D, middle panel; note that the band marked with an asterisk (*) is background due to IgG light chain) or the expression of endogenous eIF5A (FIG. 2D, bottom panel).
as §1

[2] = 293T cells, 24 hours post-transfection

interaction of endogenous eIF5A with tagged DHS (eIF5A:DHS complexes) | concentration range reducing the appearance of mature eIF5A (DOHH; [2]) | submaximal effect of the NMD inhibitor when combined with nonsense suppressor G418 (NMD) | NMD in the thalassemia model system (NMD) | interaction between endogenous eIF5A and tagged DOHH (eIF5A:DOHH complex) | SMILES | drug concentrations at which inhibition of NMD is seen (NMD; thalassemia model system) | association of endogenous DOHH with FLAG-eIF5A (co-immunoprecipitation) (eIF5A:DOHH complex) | further results
 |  |  |  |  | CN[C@@H]1[C@@H](O)[C@@H](O[C@@H]2[C@@H](O)[C@H](O[C@H]3O[C@H]([C@@H](C)O)[C@@H](O)[C@H](O)[C@H]3N)[C@@H](N)C[C@H]2N)OC[C@]1(C)O [G418] |  |  | effect on expression (nonsense suppressor, for comparison) (NMD; thalassemia model system): expression-enhancing effect
resistant | 3 to 30 µM | distinctly enhanced | inhibited | inhibited | Cc1cc(C2CCCCC2)n(O)c(=O)c1 [CPX, ciclopirox] | 15/30 | largely prevented; also recorded: destabilized | levels in skin ([1]; topical preparations containing up to 57.5 mM): > 30 µM
resistant | 200 to 400 µM | distinctly enhanced | inhibited | inhibited | Cc1c(O)c(=O)ccn1C [DEF, deferiprone] | 125/250 | largely prevented; also recorded: destabilized | concentration in serum ([1]; after oral medication): ≥ 250 µM; NMD inhibition by single compound (NMD; DEF at 125 μM, HYD at 200 μM, each alone): ineffective individually
 |  |  |  |  | Cc1ccn(O)c(=O)c1 [P2] |  | neither P2 or DFOX prevented; also recorded: Neither DFOX nor P2 had any effect | activity in cell-based assays (DOHH): little or no activity; effect on the appearance of mature FLAG-eIF5A (DOHH; 293T cells, 24 hours post-transfection, control compounds): little or no effect
 |  |  |  |  | NNc1nncc2ccccc12 [HYD, hydralazine] | 200/400 |  | 

SMILES | interaction of endogenous eIF5A with tagged DHS (eIF5A:DHS complexes) | concentration range reducing the appearance of mature eIF5A (DOHH; [2]) | submaximal effect of the NMD inhibitor when combined with nonsense suppressor G418 (NMD) | NMD in the thalassemia model system (NMD) | interaction between endogenous eIF5A and tagged DOHH (eIF5A:DOHH complex) | drug concentrations at which inhibition of NMD is seen (NMD; thalassemia model system) | association of endogenous DOHH with FLAG-eIF5A (co-immunoprecipitation) (eIF5A:DOHH complex) | further results
NCCCCCCCN=C(N)N [GC7] | inhibited; also recorded: blocked formation |  |  |  |  |  | No DOHH was associated with FLAG-eIF5A | 

Reference: patent US9849146B2, “Inhibition of nonsense mediated mRNA decay by drugs that prevent hypusination of eukaryotic initiation factor 5A” (RUTGERS, THE STATE UNIVERSITY OF NEW JERSEY, priority 2009, dated 2017)
